# In patent US9095578B2, “Adenylyl cyclases as novel targets for the treatment of infection by eukaryotic pathogens” (CORNELL RESEARCH FOUNDATION, INC., priority 2007, dated 2015):
# Key:
# human sAC [1] = biological target: T1, human sAC (Homo sapiens, UniProt Q96PN6); experiment: in vitro adenylyl cyclase assay with purified human sAC protein; format: biochemical; details: 100 μM of compound; calcium and bicarbonate stimulated; activation instead of inhibition
# T1 construct: made in house
# T1 sequence (Q96PN6 1-469 limits assumed): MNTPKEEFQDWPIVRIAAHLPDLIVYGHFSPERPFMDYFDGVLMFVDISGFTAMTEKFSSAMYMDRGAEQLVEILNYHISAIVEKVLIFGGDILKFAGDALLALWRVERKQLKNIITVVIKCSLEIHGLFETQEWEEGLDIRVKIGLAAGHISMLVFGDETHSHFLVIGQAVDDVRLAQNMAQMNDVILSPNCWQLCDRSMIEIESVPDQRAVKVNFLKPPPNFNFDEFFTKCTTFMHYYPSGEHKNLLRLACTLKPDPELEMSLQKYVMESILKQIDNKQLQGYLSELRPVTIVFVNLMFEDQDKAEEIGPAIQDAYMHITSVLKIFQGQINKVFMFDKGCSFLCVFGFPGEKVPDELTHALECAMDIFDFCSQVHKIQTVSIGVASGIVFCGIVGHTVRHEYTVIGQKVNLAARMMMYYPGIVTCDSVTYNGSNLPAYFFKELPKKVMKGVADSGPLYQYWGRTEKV
# Description: Purified human sAC protein was used in an in vitro adenylyl cyclase assay. Purification of the protein is described in detail in Litvin et al. 2003. […] This paper also describes the general conditions for a sAC cyclase assay. The specific conditions for the in vitro assay are as follows.
# An aliquot of the master mixture was added to the purified human sAC. The assay mixture also included the indicated concentration of KH compound, or an equivalent volume of vehicle (i.e., DMSO) as control. The reaction was started by adding 5 mM ATP (total assay volume=100 μL). […] Stimulated assay conditions involve adding 40 mM bicarbonate and 5 mM CaCl2 to the above master mixture.
# Cyclic AMP levels were measured in each sample using the Correlate-EIA Direct Cyclic AMP assay kit from Assay Designs as per manufacturers instructions.
# [2] = system: adenylyl cyclase activity from Trypansoma brucei cell lysates; experiment: adenylyl cyclase assay on whole cell lysate of the bloodstream form; format: biochemical, Trypanosoma brucei; details: 15 mM MgCl2, 1 mM ATP, pH 7.5, 30° C.; for effect on adenylyl cyclase activity in whole cell lysate: any concentration
# Description: The effect of these compounds on lysate activity was tested using whole cell lysate of the bloodstream form. Briefly, 5×10^6 cells were sonicated (on ice) in a lysis buffer consisting of 2 mM Tris-HCl, 15 mM KCl, 1 mM EDTA, 1 mM 2-mercaptoethanol, 100 μM PMSF, and 1 μg/mL aprotinin/leupeptin. Adenylyl cyclase assays were conducted using 20 μL of lysate/assay in the presence of 15 mM MgCl2 and 1 mM ATP in 50 mM Tris-HCl at pH=7.5 at 30° C. KH7.14 and KH7.15 had no effect on activity at any concentration while 100 μM KH7 stimulated AC activity in the whole cell lysate between 1.5-2 fold (see FIG. 2). The observation that KH7 prevents growth of bloodstream form cells in vitro via activation of adenylyl cyclase is consistent with the idea that the cAMP pathway controls the cell cycle.
# Cryptococcus = experiment: morphological transition essential for pathogenesis, Cryptococcus; format: cell-based
# Candida = experiment: morphological transition essential for pathogenesis, Candida; format: cell-based
# human sAC [3] = biological target: T1, human sAC; experiment: in vivo cAMP accumulation assay, 4-4 cells (hsACt stably transfected into 293T) + IBMX; format: cell-based; details: 4-4, Basal column
# Description: 293T cells or 4-4 […] stably transfected into 293T) were grown in 75 cm2 Tissue Culture Flasks until nearly confluent using DMEM (10% FBS, 1% L-Glutamine, 1% Penicillin/Streptomycin). Cells were released from the flask with 3 ml of trypsin followed by addition of 7 ml of DMEM to neutralize the trypsin. Cells were mixed by pipetting up and down with 10 ml serological pipette. To a 3 ml aliquot of the cell mixture, 6 ml of DMEM (prewarmed to 37° C.) was added followed by thorough mixing by picking up the entire 9 mls using a repeat pipettor, and slowly pipetting out against the wall of container. This was repeated this ten times to ensure the mixture in homogenous. 100 μL of cells were then added to each pre-siliconized 1.7 ml Eppindorf tubes (Costar #3207) followed by a 60 min incubation at 37° C. and 5% CO2. This incubation was performed in 20-tube, round, floating racks (VWR #60986-100), which enable a quick transfer of the samples to a water bath, and the ability to mix several samples simultaneously. Following the incubation, 1 μL of the compound in DMSO was added (or just DMSO for controls). The cells were mixed before and after adding the compound, by a brief (and light) vortexing. The compounds were added while the cells were in the 37° C. water bath, followed by a 10 min incubation at 37° C. and 5% CO2. […] The 4-4 cells receive the IBMX to a final concentration of 500 μM IBMX. […]
# [4] = system: endogenous transmembrane adenylyl cyclases; experiment: in vivo cAMP accumulation assay, 293T cells + IBMX and Forskolin; format: cell-based, human; details: 293T + FSK column
# Description: 293T cells or 4-4 cells (hsACt stably transfected into 293T) were grown in 75 cm2 Tissue Culture Flasks until nearly confluent using DMEM (10% FBS, 1% L-Glutamine, 1% Penicillin/Streptomycin). Cells were released from the flask with 3 ml of trypsin followed by addition of 7 ml of DMEM to neutralize the trypsin. Cells were mixed by pipetting up and down with 10 ml serological pipette. To a 3 ml aliquot of the cell mixture, 6 ml of DMEM (prewarmed to 37° C.) was added followed by thorough mixing by picking up the entire 9 mls using a repeat pipettor, and slowly pipetting out against the wall of container. This was repeated this ten times to ensure the mixture in homogenous. 100 μL of cells were then added to each pre-siliconized 1.7 ml Eppindorf tubes (Costar #3207) followed by a 60 min incubation at 37° C. and 5% CO2. This incubation was performed in 20-tube, round, floating racks (VWR #60986-100), which enable a quick transfer of the samples to a water bath, and the ability to mix several samples simultaneously. Following the incubation, 1 μL of the compound in DMSO was added (or just DMSO for controls). […] Following a 10 min incubation at room temperature, 30 μL of each sample was added to 70 μL of 0.1 N HCl and the cAMP levels were measured using the protocol for the Direct Cyclic AMP Kit (Assay Designs, Inc. # 901-066). […]
smiles,measurement,setting,value
Cc1ccc(Cn2c(SCC(=O)N/N=C/c3ccncc3)nc3ccccc32)cc1 [KH7.142],"Activation, printed in column % Inhibition (100 μM), stimulated human sAC",human sAC [1],Activation @ 100
CC(Sc1nc2ccccc2[nH]1)C(=O)N/N=C/c1cc(Br)ccc1O (centres unmarked) [KH7],stimulation of AC activity in the whole cell lysate,[2]; 100 μM,1.5-2 fold
same,morphological transition essential for pathogenesis,Cryptococcus,blocked
same,morphological transition essential for pathogenesis,Candida,blocked
C/C(=N\NC(=O)CSc1nc2ccccc2[nH]1)c1ccccc1 [KH7.108],"remark on cellular toxicity, 4-4 cells",human sAC [3],may be cellular toxicity
same,"remark on cellular toxicity, 293T cells",[4],may be cellular toxicity
O=C(CSc1nc2ccccc2[nH]1)N/N=C/c1ccccn1 [KH7.14],effect on adenylyl cyclase activity in whole cell lysate,[2],no effect
COc1cc(/C=N/NC(=O)CSc2nc3ccccc3[nH]2)ccc1O [KH7.15],effect on adenylyl cyclase activity in whole cell lysate,[2],no effect
